We go through 65 sequences from the supplement of paper PMC11208160.
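Also: IS621 bridge recombinase in Escherichia coli cells against a fixed T5 target plasmid.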

The nature of the data set: recombinant UMI read abundance after kanamycin selection (control-corrected) (log10(CPM+1)); higher = more efficient recombination; extreme values may be limits of the assay; sequences stand for … in AGTGCAGAGAAAATCGGCCAGTTTTCTCTGCCTGCAGTCCGCATGCCGTGGGACCCCTTGGGTTCTAACCTGTTGCCTAGATTTATGCAGCGGACTGCCTTTCTCCCAAAGTGATAAACCGG…AGGTTGGTTTCACT; site = the 11-nt donor. The method, then: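 Pooled E. coli donor-specificity screen for the IS621 bridge recombinase. Each library member carries a reprogrammed 11-nt donor and a full-length LE bridge RNA expressed in cis from the natural promoter, with a paired donor-binding loop (8-nt LDG + 4-nt RDG) and a target-binding loop fixed to T5. It is co-electroporated with a T5 target plasmid; recombinase is induced with 0.07 mM IPTG and recombinants are selected on kanamycin. UMIs are counted as CPM, averaged over two biological replicates and corrected by the unselected control. Molecule = full bridge RNA written as DNA, built from the T5 scaffold: LDG = donor specificity nt 1-8, RDG = reverse complement of nt 8-11.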
Consider “AAAACTTCATGGACCGGTTTTCCCGGTAATCCGTATTTGTC (site AAAACTTCTGA)”, for which the “recombinant UMI read abundance (log10)” value stood at 0.
In the case of “AAAAGTCCATGGACCGGTTTTCCCGGTAATCCGTATTTGTA (site AAAAGTCCTTA)”, the “recombinant UMI read abundance (log10)” value was 0.66.
As to “AAAAGTCCATGGACCGGTTTTCCCGGTAATCCGTATTTGTA (site CAAAGTCCTTA)”, the “recombinant UMI read abundance (log10)” value worked out at 0.48.
In the case of “AAAAGTCCATGGACCGGTTTTCCCGGTAATCCGTATTTGTA (site GAAAGTCCTTA)”, the “recombinant UMI read abundance (log10)” value stood at 0.273.
“AAAAGTCCATGGACCGGTTTTCCCGGTAATCCGTATTTGTA (site TAAAGTCCTTA)”: the “recombinant UMI read abundance (log10)” value was determined as 1.12.
Then “AAACATCCATGGACCGGTTTTCCCGGTAATCCGTATTTGAC (site AAACATCCTGT)”, with 1.26.
As for “AAACATCCATGGACCGGTTTTCCCGGTAATCCGTATTTGAC (site ACACATCCTGT)”, the “recombinant UMI read abundance (log10)” value turned out to be 0.
“AAACATCCATGGACCGGTTTTCCCGGTAATCCGTATTTGAC (site AGACATCCTGT)”: the “recombinant UMI read abundance (log10)” value was determined as 0.
For “AAACATCCATGGACCGGTTTTCCCGGTAATCCGTATTTGAC (site ATACATCCTGT)” the value was 0; for “AAACGTCCATGGACCGGTTTTCCCGGTAATCCGTATTTGTT (site AAACGTCCTAA)”, 0.525.
As for “AAACTTACATGGACCGGTTTTCCCGGTAATCCGTATTTGCA (site AAACTTACTTG)”, the “recombinant UMI read abundance (log10)” value came out at 1.52.
For “AAACTTGCATGGACCGGTTTTCCCGGTAATCCGTATTTGGC (site AAACTTGCTGC)” the value was 0.
For the sequence “AAAGAAGCATGGACCGGTTTTCCCGGTAATCCGTATTTGGA (site AAAGAAGCTTC)”, the “recombinant UMI read abundance (log10)” value is 1.94.
Regarding “AAAGAGGCATGGACCGGTTTTCCCGGTAATCCGTATTTGCA (site AAAGAGGCTTG)”, the “recombinant UMI read abundance (log10)” value came to 2.9.
For “AAAGATCCATGGACCGGTTTTCCCGGTAATCCGTATTTGCC (site AAAGATCCTGG)”, the “recombinant UMI read abundance (log10)” value is 0.
For “AAAGCAGCATGGACCGGTTTTCCCGGTAATCCGTATTTGCT (site AAAGCAGCTAG)”, the “recombinant UMI read abundance (log10)” value turned out to be 1.82.
As for “AAAGCAGCATGGACCGGTTTTCCCGGTAATCCGTATTTGCT (site CAAGCAGCTAG)”, the “recombinant UMI read abundance (log10)” value was found to be 1.5.
For “AAAGCAGCATGGACCGGTTTTCCCGGTAATCCGTATTTGCT (site GAAGCAGCTAG)”, the “recombinant UMI read abundance (log10)” value was 0.198.
Turning to “AAAGCAGCATGGACCGGTTTTCCCGGTAATCCGTATTTGCT (site TAAGCAGCTAG)”, the “recombinant UMI read abundance (log10)” value was 1.67.
Turning to “AAAGCCACATGGACCGGTTTTCCCGGTAATCCGTATTTGTA (site AAAGCCACTTA)”, the “recombinant UMI read abundance (log10)” value was 1.82.
With “AAAGGTACATGGACCGGTTTTCCCGGTAATCCGTATTTGAG (site AAAGGTACTCT)”, the “recombinant UMI read abundance (log10)” value was 2.1.
For “AAAGGTTCATGGACCGGTTTTCCCGGTAATCCGTATTTGGG (site AAAGGTTCTCC)” the value was 1.05.
As to “AAAGTAACATGGACCGGTTTTCCCGGTAATCCGTATTTGCA (site AAAGTAACTTG)”, the “recombinant UMI read abundance (log10)” value was 2.88.
On to “AAAGTAACATGGACCGGTTTTCCCGGTAATCCGTATTTGCA (site ACAGTATCTTG)”, for which the “recombinant UMI read abundance (log10)” value was 2.56.
“AAAGTACCATGGACCGGTTTTCCCGGTAATCCGTATTTGCG (site AAAGTACCTCG)”: the “recombinant UMI read abundance (log10)” value was found to be 0.0963.
As to “AAAGTCTCATGGACCGGTTTTCCCGGTAATCCGTATTTGAT (site AAAGTCTCTAT)”, the “recombinant UMI read abundance (log10)” value is 3.17.
On to “AAAGTCTCATGGACCGGTTTTCCCGGTAATCCGTATTTGCA (site AAAGTCTCTTG)”, for which the “recombinant UMI read abundance (log10)” value worked out at 3.16.
As for “AAAGTCTCATGGACCGGTTTTCCCGGTAATCCGTATTTGCA (site ACAGTATCTTG)”, the “recombinant UMI read abundance (log10)” value came to 1.99.
On to “AAATAACCATGGACCGGTTTTCCCGGTAATCCGTATTTGAA (site AAATAACCTTT)”, for which the “recombinant UMI read abundance (log10)” value amounted to 0.
For “AAATAAGCATGGACCGGTTTTCCCGGTAATCCGTATTTGGG (site AAATAAGCTCC)”, the “recombinant UMI read abundance (log10)” value came to 0.434.
With “AAATCCGCATGGACCGGTTTTCCCGGTAATCCGTATTTGTC (site AAATCCGCTGA)”, the “recombinant UMI read abundance (log10)” value worked out at 2.33.
In the case of “AAATGGGCATGGACCGGTTTTCCCGGTAATCCGTATTTGCT (site AAATGGGCTAG)”, the “recombinant UMI read abundance (log10)” value is 2.28.
For “AAATGTTCATGGACCGGTTTTCCCGGTAATCCGTATTTGCC (site AAATGTTCTGG)” the value was 2.2.
On to “AAATTCCCATGGACCGGTTTTCCCGGTAATCCGTATTTGCT (site AAATTCCCTAG)”, for which the “recombinant UMI read abundance (log10)” value amounted to 1.37.
Then “AAATTCCCATGGACCGGTTTTCCCGGTAATCCGTATTTGCT (site CAATTCCCTAG)”, with 0.647; and “AAATTCCCATGGACCGGTTTTCCCGGTAATCCGTATTTGCT (site GAATTCCCTAG)”, with 0.544.
Regarding “AAATTCCCATGGACCGGTTTTCCCGGTAATCCGTATTTGCT (site TAATTCCCTAG)”, the “recombinant UMI read abundance (log10)” value is 1.08.
Then “AAATTCCCATGGACCGGTTTTCCCGGTAATCCGTATTTGGT (site AAATTCCCTAC)”, with 0.
“AACACACCATGGACCGGTTTTCCCGGTAATCCGTATTTGAC (site AACACACCTGT)”: the “recombinant UMI read abundance (log10)” value was found to be 0.
On to “AACACCTCATGGACCGGTTTTCCCGGTAATCCGTATTTGAT (site AACACCTCTAT)”, for which the “recombinant UMI read abundance (log10)” value was found to be 1.76.
On to “AACAGAGCATGGACCGGTTTTCCCGGTAATCCGTATTTGAT (site AACAGAGCTAT)”, for which the “recombinant UMI read abundance (log10)” value turned out to be 2.02.
Then “AACCAAACATGGACCGGTTTTCCCGGTAATCCGTATTTGTC (site AACCAAACTGA)”, with 0; and “AACCCACCATGGACCGGTTTTCCCGGTAATCCGTATTTGGA (site AACCCACCTTC)”, with 0.0204.
As to “AACCGCCCATGGACCGGTTTTCCCGGTAATCCGTATTTGAT (site AACCGACCTAT)”, the “recombinant UMI read abundance (log10)” value is 0.0035.
Regarding “AACCGCCCATGGACCGGTTTTCCCGGTAATCCGTATTTGAT (site AACCGCCCTAT)”, the “recombinant UMI read abundance (log10)” value was determined as 0.00906.
For the sequence “AACCGCCCATGGACCGGTTTTCCCGGTAATCCGTATTTGAT (site AACCGGCCTAT)”, the “recombinant UMI read abundance (log10)” value stood at 0.00971.
For “AACCGCCCATGGACCGGTTTTCCCGGTAATCCGTATTTGAT (site AACCGTCCTAT)”, the “recombinant UMI read abundance (log10)” value was determined as 0.0447.
Consider “AACCGGCCATGGACCGGTTTTCCCGGTAATCCGTATTTGAT (site AACCGACCTAT)”, for which the “recombinant UMI read abundance (log10)” value was determined as 0.
On to “AACCGGCCATGGACCGGTTTTCCCGGTAATCCGTATTTGAT (site AACCGCCCTAT)”, for which the “recombinant UMI read abundance (log10)” value stood at 0.014.
As for “AACCGGCCATGGACCGGTTTTCCCGGTAATCCGTATTTGAT (site AACCGGCCTAT)”, the “recombinant UMI read abundance (log10)” value was 0.016.
For the sequence “AACCGGCCATGGACCGGTTTTCCCGGTAATCCGTATTTGAT (site AACCGTCCTAT)”, the “recombinant UMI read abundance (log10)” value worked out at 0.0213.
Turning to “AACCGGTCATGGACCGGTTTTCCCGGTAATCCGTATTTGGA (site AACCGGTCTTC)”, the “recombinant UMI read abundance (log10)” value came to 0.422.
Take “AACCGTCCATGGACCGGTTTTCCCGGTAATCCGTATTTGAA (site AACCGTCCTAT)”: the “recombinant UMI read abundance (log10)” value stood at 0.0196.
For “AACCGTCCATGGACCGGTTTTCCCGGTAATCCGTATTTGAA (site AACCGTCCTCT)”, the “recombinant UMI read abundance (log10)” value was 0.0191.
Regarding “AACCGTCCATGGACCGGTTTTCCCGGTAATCCGTATTTGAA (site AACCGTCCTGT)”, the “recombinant UMI read abundance (log10)” value worked out at 0.
“AACCGTCCATGGACCGGTTTTCCCGGTAATCCGTATTTGAA (site AACCGTCCTTT)”: the “recombinant UMI read abundance (log10)” value turned out to be 0.0144.
For “AACCGTCCATGGACCGGTTTTCCCGGTAATCCGTATTTGCT (site AACCGTCCTAA)” the value was 0.0135; for “AACCGTCCATGGACCGGTTTTCCCGGTAATCCGTATTTGCT (site AACCGTCCTAC)”, 0.00247.
Regarding “AACCGTCCATGGACCGGTTTTCCCGGTAATCCGTATTTGCT (site AACCGTCCTAG)”, the “recombinant UMI read abundance (log10)” value was determined as 0.593.
With “AACCGTCCATGGACCGGTTTTCCCGGTAATCCGTATTTGCT (site AACCGTCCTAT)”, the “recombinant UMI read abundance (log10)” value is 0.0146.
“AACCGTCCATGGACCGGTTTTCCCGGTAATCCGTATTTGGT (site AACCGTCCTAA)”: the “recombinant UMI read abundance (log10)” value came out at 0.0129.
For the sequence “AACCGTCCATGGACCGGTTTTCCCGGTAATCCGTATTTGGT (site AACCGTCCTAC)”, the “recombinant UMI read abundance (log10)” value was found to be 0.0164.
Then “AACCGTCCATGGACCGGTTTTCCCGGTAATCCGTATTTGGT (site AACCGTCCTAG)”, with 0.00368; and “AACCGTCCATGGACCGGTTTTCCCGGTAATCCGTATTTGGT (site AACCGTCCTAT)”, with 0.00572.
Then “AACCTTCCATGGACCGGTTTTCCCGGTAATCCGTATTTGAA (site AACCTTCCTTT)”, with 0.0147.
